Reference: US11981658B2, “Substituted aminopyridine compounds as EGFR inhibitors” (YUHAN CORPORATION, priority 2021, dated 2024)
Read-outs that look alike come from different tables or passages of the source.

Assays:
EGFR Del19/T790M/C797S = EGFR Del19/T790M/C797S (Homo sapiens, UniProt P00533, C797S/DEL746-750/T790M); experiment: Biochemical EGFR kinase inhibition assay (Lance Ultra TR-FRET), triple mutant del19/T790M/C797S
In short: (§1)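 In this biochemical assay, phosphorylation after a one-hour room-temperature reaction was detected with europium-labelled anti-phosphopeptide antibody at 2 nM final concentration.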

EGFR wildtype (WT) = EGFR wildtype (WT) (Homo sapiens, UniProt P00533); experiment: Biochemical EGFR kinase inhibition assay (Lance Ultra TR-FRET), wildtype
In short: as §1

EGFR Del19/C797S = EGFR Del19/C797S (Homo sapiens, UniProt P00533, C797S/DEL746-750); experiment: Biochemical EGFR kinase inhibition assay (Lance Ultra TR-FRET), double mutant del19/C797S
In short: as §1

EGFR L858R/C797S = EGFR L858R/C797S (Homo sapiens, UniProt P00533, C797S/L858R); experiment: Biochemical EGFR kinase inhibition assay (Lance Ultra TR-FRET), double mutant L858R/C797S
In short: as §1

EGFR L858R/T790M/C797S = EGFR L858R/T790M/C797S (Homo sapiens, UniProt P00533, C797S/L858R/T790M); experiment: Biochemical EGFR kinase inhibition assay (Lance Ultra TR-FRET), triple mutant L858R/T790M/C797S
In short: as §1

[1] = IC50 Del19/T790M/C797S (nM), 100 μM ATP
[2] = Km ATP, read-out: IC50 Del19/T790M/C797S (nM) Km ATP
[3] = Km ATP, read-out: IC50 WT (nM) Km ATP
[4] = IC50 Del19/C797S (nM), 100 μM ATP
[5] = Km ATP, read-out: IC50 Del19/C797S (nM) Km ATP
[6] = IC50 L858R/C797S (nM), 100 μM ATP
[7] = Km ATP, read-out: IC50 L858R/C797S (nM) Km ATP
[8] = IC50 L858R/T790M/C797S (nM), 100 μM ATP
[9] = Km ATP, read-out: IC50 L858R/T790M/C797S (nM) Km ATP

Chain of EGFR Del19/T790M/C797S (P00533 with tags, fused parts or gaps DEL746-750/T790M/C797S): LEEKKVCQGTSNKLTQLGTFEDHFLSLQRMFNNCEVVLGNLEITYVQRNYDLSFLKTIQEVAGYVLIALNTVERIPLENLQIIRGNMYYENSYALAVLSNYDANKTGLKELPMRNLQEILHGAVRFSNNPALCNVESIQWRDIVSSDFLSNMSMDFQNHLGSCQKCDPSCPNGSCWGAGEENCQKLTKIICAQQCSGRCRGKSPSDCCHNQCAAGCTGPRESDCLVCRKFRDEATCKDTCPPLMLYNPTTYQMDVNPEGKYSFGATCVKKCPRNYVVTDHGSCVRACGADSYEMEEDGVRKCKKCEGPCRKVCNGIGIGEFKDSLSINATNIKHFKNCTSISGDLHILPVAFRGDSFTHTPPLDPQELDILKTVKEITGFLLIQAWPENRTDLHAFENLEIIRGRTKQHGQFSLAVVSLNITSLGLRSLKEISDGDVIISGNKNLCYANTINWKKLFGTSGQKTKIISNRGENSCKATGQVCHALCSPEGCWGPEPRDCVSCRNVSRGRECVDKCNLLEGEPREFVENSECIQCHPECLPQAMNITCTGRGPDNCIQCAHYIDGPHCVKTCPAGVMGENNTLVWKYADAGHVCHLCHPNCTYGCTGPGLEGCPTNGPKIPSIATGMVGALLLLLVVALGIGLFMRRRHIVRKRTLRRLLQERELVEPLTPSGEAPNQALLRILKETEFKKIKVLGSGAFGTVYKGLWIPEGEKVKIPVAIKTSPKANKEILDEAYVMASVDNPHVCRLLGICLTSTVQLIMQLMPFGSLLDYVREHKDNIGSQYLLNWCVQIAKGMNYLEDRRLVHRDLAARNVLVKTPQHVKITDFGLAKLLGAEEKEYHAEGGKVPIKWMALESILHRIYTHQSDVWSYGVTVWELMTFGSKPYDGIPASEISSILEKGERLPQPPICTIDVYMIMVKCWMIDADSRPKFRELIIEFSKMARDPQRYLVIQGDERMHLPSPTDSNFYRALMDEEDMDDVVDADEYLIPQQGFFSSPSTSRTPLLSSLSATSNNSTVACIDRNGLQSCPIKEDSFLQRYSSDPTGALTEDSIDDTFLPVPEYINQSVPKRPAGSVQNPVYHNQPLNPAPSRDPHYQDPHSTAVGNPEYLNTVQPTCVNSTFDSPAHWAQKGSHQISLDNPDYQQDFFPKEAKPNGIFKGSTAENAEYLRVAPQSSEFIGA
Chain of EGFR L858R/C797S (P00533 25-1210 C797S/L858R): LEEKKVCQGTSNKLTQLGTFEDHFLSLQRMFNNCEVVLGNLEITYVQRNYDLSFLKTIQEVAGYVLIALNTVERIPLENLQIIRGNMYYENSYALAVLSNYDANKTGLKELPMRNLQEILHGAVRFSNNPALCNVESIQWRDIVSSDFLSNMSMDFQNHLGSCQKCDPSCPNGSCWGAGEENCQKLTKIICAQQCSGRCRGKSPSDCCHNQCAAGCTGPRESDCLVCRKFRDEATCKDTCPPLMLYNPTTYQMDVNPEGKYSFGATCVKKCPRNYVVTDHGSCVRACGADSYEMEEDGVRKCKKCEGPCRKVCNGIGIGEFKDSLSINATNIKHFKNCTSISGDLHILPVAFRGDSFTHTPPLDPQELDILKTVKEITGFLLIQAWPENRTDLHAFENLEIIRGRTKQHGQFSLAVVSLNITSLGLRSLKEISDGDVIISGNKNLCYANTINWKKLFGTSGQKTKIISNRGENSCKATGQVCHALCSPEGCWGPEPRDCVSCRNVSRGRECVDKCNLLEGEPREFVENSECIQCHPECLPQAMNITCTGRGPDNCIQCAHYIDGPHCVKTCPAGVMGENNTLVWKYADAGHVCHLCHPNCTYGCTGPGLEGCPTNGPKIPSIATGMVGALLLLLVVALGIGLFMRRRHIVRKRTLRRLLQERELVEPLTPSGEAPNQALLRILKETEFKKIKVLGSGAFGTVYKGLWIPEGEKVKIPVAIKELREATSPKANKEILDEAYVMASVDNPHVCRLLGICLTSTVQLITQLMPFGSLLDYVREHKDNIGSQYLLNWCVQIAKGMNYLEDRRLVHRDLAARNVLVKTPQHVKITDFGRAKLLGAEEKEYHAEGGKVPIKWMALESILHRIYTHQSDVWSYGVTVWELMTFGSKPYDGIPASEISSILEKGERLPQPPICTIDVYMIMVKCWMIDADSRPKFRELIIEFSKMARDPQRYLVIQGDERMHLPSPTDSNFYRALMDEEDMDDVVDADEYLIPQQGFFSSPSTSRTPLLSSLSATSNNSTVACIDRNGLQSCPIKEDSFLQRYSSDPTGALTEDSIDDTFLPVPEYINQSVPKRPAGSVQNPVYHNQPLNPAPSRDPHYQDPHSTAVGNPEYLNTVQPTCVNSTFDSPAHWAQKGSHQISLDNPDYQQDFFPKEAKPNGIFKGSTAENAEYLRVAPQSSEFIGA
Chain of EGFR Del19/C797S (P00533 with tags, fused parts or gaps DEL746-750/C797S): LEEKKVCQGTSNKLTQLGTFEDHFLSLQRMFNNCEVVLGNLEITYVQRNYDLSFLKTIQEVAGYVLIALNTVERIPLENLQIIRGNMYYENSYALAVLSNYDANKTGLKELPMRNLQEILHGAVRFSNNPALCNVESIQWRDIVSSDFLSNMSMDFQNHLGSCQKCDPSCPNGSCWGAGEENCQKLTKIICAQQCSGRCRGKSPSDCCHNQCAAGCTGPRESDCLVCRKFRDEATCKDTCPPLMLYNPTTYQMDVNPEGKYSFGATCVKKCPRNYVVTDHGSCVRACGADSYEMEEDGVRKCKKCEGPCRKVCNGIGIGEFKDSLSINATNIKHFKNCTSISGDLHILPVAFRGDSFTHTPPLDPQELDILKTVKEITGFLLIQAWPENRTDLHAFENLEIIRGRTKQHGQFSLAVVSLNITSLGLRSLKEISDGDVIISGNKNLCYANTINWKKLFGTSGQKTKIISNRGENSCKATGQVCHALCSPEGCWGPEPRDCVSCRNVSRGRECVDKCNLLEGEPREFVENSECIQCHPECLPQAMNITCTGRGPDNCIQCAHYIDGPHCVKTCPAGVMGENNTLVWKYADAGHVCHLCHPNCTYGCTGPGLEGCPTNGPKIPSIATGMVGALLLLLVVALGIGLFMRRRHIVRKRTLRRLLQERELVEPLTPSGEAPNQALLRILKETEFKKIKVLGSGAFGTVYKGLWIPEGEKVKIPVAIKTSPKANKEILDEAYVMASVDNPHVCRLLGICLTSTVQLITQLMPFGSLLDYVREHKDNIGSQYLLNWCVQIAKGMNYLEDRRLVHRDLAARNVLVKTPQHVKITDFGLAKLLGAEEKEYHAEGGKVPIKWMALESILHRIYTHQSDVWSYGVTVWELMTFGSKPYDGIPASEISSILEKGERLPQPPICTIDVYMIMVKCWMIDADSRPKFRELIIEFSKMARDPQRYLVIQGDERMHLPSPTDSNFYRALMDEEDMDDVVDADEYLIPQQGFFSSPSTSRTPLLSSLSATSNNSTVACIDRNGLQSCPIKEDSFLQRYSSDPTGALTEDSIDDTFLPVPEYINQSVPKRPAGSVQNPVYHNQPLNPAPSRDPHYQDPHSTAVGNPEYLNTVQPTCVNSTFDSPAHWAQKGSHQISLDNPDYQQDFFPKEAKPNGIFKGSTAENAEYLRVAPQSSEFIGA
Chain of EGFR wildtype (WT) (P00533 25-1210): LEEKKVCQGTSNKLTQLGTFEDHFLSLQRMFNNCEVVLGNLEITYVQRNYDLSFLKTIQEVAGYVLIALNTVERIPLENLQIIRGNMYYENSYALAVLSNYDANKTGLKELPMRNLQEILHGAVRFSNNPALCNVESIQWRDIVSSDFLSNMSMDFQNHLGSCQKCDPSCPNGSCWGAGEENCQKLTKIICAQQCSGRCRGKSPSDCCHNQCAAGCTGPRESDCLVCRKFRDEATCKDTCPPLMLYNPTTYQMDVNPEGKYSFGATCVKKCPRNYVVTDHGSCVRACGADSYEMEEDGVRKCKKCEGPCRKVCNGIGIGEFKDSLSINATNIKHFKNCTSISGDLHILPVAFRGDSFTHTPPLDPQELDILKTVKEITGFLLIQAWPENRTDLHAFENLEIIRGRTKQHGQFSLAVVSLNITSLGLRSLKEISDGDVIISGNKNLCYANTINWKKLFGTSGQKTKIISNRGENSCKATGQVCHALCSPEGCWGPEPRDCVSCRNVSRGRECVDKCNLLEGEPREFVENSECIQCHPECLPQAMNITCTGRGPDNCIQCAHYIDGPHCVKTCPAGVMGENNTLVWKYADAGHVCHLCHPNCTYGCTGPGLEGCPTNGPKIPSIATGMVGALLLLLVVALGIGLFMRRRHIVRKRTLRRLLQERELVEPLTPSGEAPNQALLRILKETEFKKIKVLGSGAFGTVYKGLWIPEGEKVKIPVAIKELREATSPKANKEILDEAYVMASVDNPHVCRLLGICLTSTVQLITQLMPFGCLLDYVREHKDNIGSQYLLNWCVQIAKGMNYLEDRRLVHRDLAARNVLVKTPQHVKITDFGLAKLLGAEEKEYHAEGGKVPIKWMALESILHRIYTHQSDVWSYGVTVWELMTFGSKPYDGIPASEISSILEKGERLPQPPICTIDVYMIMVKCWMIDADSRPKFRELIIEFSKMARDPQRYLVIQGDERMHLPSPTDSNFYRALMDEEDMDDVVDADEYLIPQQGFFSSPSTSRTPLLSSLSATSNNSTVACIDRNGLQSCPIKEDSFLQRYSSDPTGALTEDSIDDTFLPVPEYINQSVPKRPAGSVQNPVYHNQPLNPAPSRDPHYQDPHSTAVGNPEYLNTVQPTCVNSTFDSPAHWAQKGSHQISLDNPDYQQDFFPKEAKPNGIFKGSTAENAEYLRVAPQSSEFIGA

IC50 (EGFR Del19/T790M/C797S; [1]) | IC50 (EGFR Del19/T790M/C797S; [2]) | IC50 (EGFR wildtype (WT); IC50 WT (nM), 100 μM ATP) | IC50 (EGFR wildtype (WT); [3]) | IC50 (EGFR Del19/C797S; [4]) | IC50 (EGFR Del19/C797S; [5]) | IC50 (EGFR L858R/C797S; [6]) | IC50 (EGFR L858R/C797S; [7]) | IC50 (EGFR L858R/T790M/C797S; [8]) | IC50 (EGFR L858R/T790M/C797S; [9]) | SMILES | also measured
0.6 nM | 0.5 nM | > 10000 nM | 23.8 nM | 2.8 nM | 1.3 nM | 10 nM | 1.5 nM | 0.8 nM | 0.2 nM | Cn1cc(C#Cc2cnc(Nc3ccnc(-c4cnn(S(=O)(=O)C5CC5)c4)n3)cc2N[C@H]2CC[C@@H](O)CC2)cn1 [Example 41, (1s, 4s)-4-((2-((2-(1-(Cyclopropylsulfonyl)-1H-pyrazol-4-yl)pyrimidin-4-yl)amino)-5-((1-methyl-1H-pyrazol-4-yl)ethynyl)pyridin-4-yl)amino)cyclohexan-1-ol] | –
0.4 nM | 0.4 nM | > 10000 nM | 174 nM | 11.7 nM | 8.8 nM | 74.2 nM | 5 nM | 2 nM | 0.4 nM | O=S(=O)(C1CC1)n1cc(-c2nccc(Nc3cc(N4CCC(NCCO)CC4)c(C#Cc4cnn(C5CCOCC5)c4)cn3)n2)cn1 [Example 137, 2-((1-(2-((2-(1-(Cyclopropylsulfonyl)-1H-pyrazol-4-yl)pyrimidin-4-yl)amino)-5-((1-(tetrahydro-2H-pyran-4-yl)-1H-pyrazol-4-yl)ethynyl)pyridin-4-yl)piperidin-4-yl)amino)ethan-1-ol] | –
0.5 nM | – | 3880 nM | – | 1.9 nM | – | 13.4 nM | – | 0.3 nM | – | CC1(CO)CCN(c2cc(Nc3ccnc(-c4cnn(S(=O)(=O)C5CC5)c4)n3)ncc2C#CC2CCOCC2)CC1 [Example 179, (1-(2-((2-(1-(Cyclopropylsulfonyl)-1H-pyrazol-4-yl)pyrimidin-4-yl)amino)-5-((tetrahydro-2H-pyran-4-yl)ethynyl)pyridin-4-yl)-4-methylpiperidin-4-yl)methanol] | IC50 (EGFR Del19/T790M/C797S; ATP at Km, read-out: IC50 Del19/T790M/C797S (nM), Km ATP): 0.4 nM; IC50 (EGFR wildtype (WT); ATP at Km, read-out: IC50 WT (nM), Km ATP): 6.2 nM; IC50 (EGFR Del19/C797S; ATP at Km, read-out: IC50 Del19/C797S (nM), Km ATP): 0.8 nM; IC50 (EGFR L858R/C797S; ATP at Km, read-out: IC50 L858R/C797S (nM), Km ATP): 1.5 nM; IC50 (EGFR L858R/T790M/C797S; ATP at Km, read-out: IC50 L858R/T790M/C797S (nM), Km ATP): 0.2 nM
4 nM | 3.7 nM | > 10000 nM | 667 nM | 80.7 nM | 51.9 nM | 2780 nM | 22.1 nM | 8.8 nM | 2.2 nM | Cn1cc(C#Cc2cnc(Nc3ccnc(-c4cnn(S(=O)(=O)C5CC5)c4)n3)cc2N[C@@H]2CCC[C@@H](O)C2)cn1 [Example 76, (1R,3R)-3-((2-((2-(1-(Cyclopropylsulfonyl)-1H-pyrazol-4-yl)pyrimidin-4-yl)amino)-5-((1-methyl-1H-pyrazol-4-yl)ethynyl)pyridin-4-yl)amino)cyclohexan-1-ol] | –
4.3 nM | – | > 10000 nM | – | 81.3 nM | – | 648 nM | – | 10.5 nM | – | O=C(N1CCC(C#Cc2cnc(Nc3ccnc(-c4cnn(S(=O)(=O)C5CC5)c4)n3)cc2NCC2CCC(O)CC2)C1)C(F)(F)F (stereo not shown) [Example 409, 1-(3-((6-((2-(1-(Cyclopropylsulfonyl)-1H-pyrazol-4-yl)pyrimidin-4-yl)amino)-4-((((1 r,4r)-4-hydroxycyclohexyl)methyl)amino)pyridin-3-yl)ethynyl)pyrrolidin-1-yl)-2,2,2-trifluoroethan-1-one] | –

More lines, now with the values behind:

SMILES | IC50 (EGFR Del19/T790M/C797S; [1]) | IC50 (EGFR Del19/T790M/C797S; [2]) | IC50 (EGFR wildtype (WT); IC50 WT (nM), 100 μM ATP) | IC50 (EGFR wildtype (WT); [3]) | IC50 (EGFR Del19/C797S; [4]) | IC50 (EGFR Del19/C797S; [5]) | IC50 (EGFR L858R/C797S; [6]) | IC50 (EGFR L858R/C797S; [7]) | IC50 (EGFR L858R/T790M/C797S; [8]) | IC50 (EGFR L858R/T790M/C797S; [9]) | also measured
CN(C)C[C@H]1CC[C@H](CNc2cc(Nc3ccnc(-c4cnn(S(=O)(=O)C5CC5)c4)n3)ncc2C#Cc2cnn(C)c2)CC1 [Example 53, N^2-(2-(1-(Cyclopropylsulfonyl)-1H-pyrazol-4-yl)pyrimidin-4-yl)-N^4-(((1r,4r)-4-((dimethylamino)methyl)cyclohexyl)methyl)-5-((1-methyl-1H-pyrazol-4-yl)ethynyl)pyridine-2,4-diamine] | – | 0.4 nM | – | 142 nM | – | 5.9 nM | – | 141 nM | – | 0.3 nM | –
CN(C)Cc1ccc(CNc2cc(Nc3ccnc(-c4cnn(S(=O)(=O)C5CC5)c4)n3)ncc2C#Cc2cnn(CCF)c2)cc1 [Example 51, N^2-(2-(1-(Cyclopropylsulfonyl)-1H-pyrazol-4-yl)pyrimidin-4-yl)-N^4-(4-((dimethylamino)methyl)benzyl)-5-((1-(2-fluoroethyl)-1H-pyrazol-4-yl)ethynyl)pyridine-2,4-diamine] | – | 0.9 nM | – | 262 nM | – | 68.6 nM | – | 49.1 nM | – | 3.2 nM | –
Cn1cc(C#Cc2cnc(Nc3ccnc(-c4cnn(S(=O)(=O)C5CC5)c4)n3)cc2N2CCCC(CO)CC2)cn1 (stereo not shown) [Example 78, (1-(2-((2-(1-(Cyclopropylsulfonyl)-1H-pyrazol-4-yl)pyrimidin-4-yl)amino)-5-((1-methyl-1H-pyrazol-4-yl)ethynyl)pyridin-4-yl)azepan-4-yl)methanol] | 1.3 nM | 1.6 nM | > 10000 nM | 163 nM | 12.4 nM | 10.4 nM | 563 nM | 22.1 nM | 5.9 nM | 0.7 nM | –
CN(C)C(=O)Cn1cc(C#Cc2cnc(Nc3ccnc(-c4cnn(S(=O)(=O)C5CC5)c4)n3)cc2N[C@H]2CC[C@@](C)(O)CC2)cn1 [Example 221, 2-(4-((6-((2-(1-(Cyclopropylsulfonyl)-1H-pyrazol-4-yl)pyrimidin-4-yl)amino)-4-(((1s,4s)-4-hydroxy-4-methylcyclohexyl)amino)pyridin-3-yl)ethynyl)-1H-pyrazol-1-yl)-N,N-dimethylacetamide] | – | 2.9 nM | – | 65 nM | – | 6.3 nM | – | 3.8 nM | – | 0.8 nM | IC50 (EGFR Del19/T790M/C797S; read-out: IC50 Del19/T790M/C797S (nM), 100 μM ATP): 2 nM; IC50 (EGFR wildtype (WT); read-out: IC50 WT (nM), 100 μM ATP): > 10000 nM; IC50 (EGFR Del19/C797S; read-out: IC50 Del19/C797S (nM), 100 μM ATP): 8.4 nM; IC50 (EGFR L858R/C797S; read-out: IC50 L858R/C797S (nM), 100 μM ATP): 33 nM; IC50 (EGFR L858R/T790M/C797S; read-out: IC50 L858R/T790M/C797S (nM), 100 μM ATP): 2.2 nM
O=S(=O)(C1CC1)n1cc(-c2nccc(Nc3cc(N[C@H]4CC[C@@H](O)CC4)c(C#CC4COC4)cn3)n2)cn1 [Example 353, (1s,4s)-4-((2-((2-(1-(Cyclopropylsulfonyl)-1H-pyrazol-4-yl)pyrimidin-4-yl)amino)-5-(oxetan-3-ylethynyl)pyridin-4-yl)amino)cyclohexan-1-ol] | 0.2 nM | – | > 10000 nM | – | 0.6 nM | – | 16.6 nM | – | 0.2 nM | – | IC50 (EGFR Del19/T790M/C797S; Km ATP, read-out: IC50 Del19/T790M/C797S (nM), Km ATP): 0.2 nM; IC50 (EGFR wildtype (WT); Km ATP, read-out: IC50 WT (nM), Km ATP): 11.3 nM; IC50 (EGFR Del19/C797S; Km ATP, read-out: IC50 Del19/C797S (nM), Km ATP): 1 nM; IC50 (EGFR L858R/C797S; Km ATP, read-out: IC50 L858R/C797S (nM), Km ATP): 3.3 nM; IC50 (EGFR L858R/T790M/C797S; Km ATP, read-out: IC50 L858R/T790M/C797S (nM), Km ATP): 0.1 nM
O=S(=O)(C1CC1)n1cc(-c2nccc(Nc3cc(N[C@H]4CCC[C@H](O)C4)c(C#Cc4ccsc4)cn3)n2)cn1 [Example 225, (1 S,3S)-3-((2-((2-(1-(Cyclopropylsulfonyl)-1H-pyrazol-4-yl)pyrimidin-4-yl)amino)-5-(thiophen-3-ylethynyl)pyridin-4-yl)amino)cyclohexan-1-ol] | 6.4 nM | – | > 10000 nM | – | 87.8 nM | – | 310 nM | – | 12.3 nM | – | –
CN(C)CCCn1cc(C#Cc2cnc(Nc3ccnc(-c4cnn(S(=O)(=O)C5CC5)c4)n3)cc2N2CCC(NCCF)CC2)cn1 [Example 145, 2-(1-(Cyclopropylsulfonyl)-1H-pyrazol-4-yl)-N-(5-((1-(3-(dimethylamino)propyl)-1H-pyrazol-4-yl)ethynyl)-4-(4-((2-fluoroethyl)amino)piperidin-1-yl)pyridin-2-yl)pyrimidin-4-amine] | 0.2 nM | 0.2 nM | 5550 nM | 14.2 nM | 0.7 nM | 0.6 nM | 23.4 nM | 0.5 nM | 0.3 nM | 0.1 nM | –
